This passage reports mutagenic call results from PubChem BioAssay AID1259407 (Chemical Carcinogenesis Research Information System (CCRIS), 2018).

Activity calls are given as the source filed them. No rule for the calls is given here.

This series deals with CCRIS mutagenicity, Ames/micronucleus/aberration tests. As to the kind of experiment: CCRIS mutagenicity studies.
The mark [1] stands for this setting: Test System: AMES SALMONELLA TYPHIMURIUM, Strain/Indicator: TA98, Metabolic Activation: NONE, Method: STANDARD PLATE.
Setting [2] is: Test System: AMES SALMONELLA TYPHIMURIUM, Strain/Indicator: TA100, Metabolic Activation: NONE, Method: STANDARD PLATE.
[3] abbreviates: Test System: AMES SALMONELLA TYPHIMURIUM, Strain/Indicator: TA100, Metabolic Activation: RAT, LIVER, S-9, AROCLOR 1254, Method: STANDARD PLATE.
The mark [4] stands for this setting: Test System: AMES SALMONELLA TYPHIMURIUM, Strain/Indicator: TA100, Metabolic Activation: NONE, Method: PREINCUBATION
Where [5] appears, read: Test System: AMES SALMONELLA TYPHIMURIUM, Strain/Indicator: TA100, Metabolic Activation: RAT, LIVER, S-9, PCB, Method: PREINCUBATION
The mark [6] stands for this setting: Test System: AMES SALMONELLA TYPHIMURIUM, Strain/Indicator: TA98, Metabolic Activation: NONE, Method: PREINCUBATION

As to `CCOC(=O)CC(=O)CCl`, the mutagenic call is “inactive; negative” (Test System: AMES SALMONELLA TYPHIMURIUM, Strain/Indicator: TA98, Metabolic Activation: HAMSTER, LIVER, S-9, AROCLOR 1254, Method: STANDARD PLATE); “inactive; negative” under setting [1]; “inactive; negative” (Test System: AMES SALMONELLA TYPHIMURIUM, Strain/Indicator: TA98, Metabolic Activation: RAT, LIVER, S-9, AROCLOR 1254, Method: STANDARD PLATE); “inactive; negative” (Test System: AMES SALMONELLA TYPHIMURIUM, Strain/Indicator: TA100, Metabolic Activation: HAMSTER, LIVER, S-9, AROCLOR 1254, Method: STANDARD PLATE); “inactive; negative” under setting [2]; “inactive; negative” under setting [3]. The mutagenic call was “inactive; negative” (Test System: AMES SALMONELLA TYPHIMURIUM, Strain/Indicator: TA1535, Metabolic Activation: HAMSTER, LIVER, S-9, AROCLOR 1254, Method: STANDARD PLATE); “inactive; negative” (Test System: AMES SALMONELLA TYPHIMURIUM, Strain/Indicator: TA1535, Metabolic Activation: NONE, Method: STANDARD PLATE); “inactive; negative” (Test System: AMES SALMONELLA TYPHIMURIUM, Strain/Indicator: TA1535, Metabolic Activation: RAT, LIVER, S-9, AROCLOR 1254, Method: STANDARD PLATE); “inactive; negative” (Test System: AMES SALMONELLA TYPHIMURIUM, Strain/Indicator: TA1537, Metabolic Activation: HAMSTER, LIVER, S-9, AROCLOR 1254, Method: STANDARD PLATE); “inactive; negative” (Test System: AMES SALMONELLA TYPHIMURIUM, Strain/Indicator: TA1537, Metabolic Activation: NONE, Method: STANDARD PLATE); “inactive; negative” (Test System: AMES SALMONELLA TYPHIMURIUM, Strain/Indicator: TA1537, Metabolic Activation: RAT, LIVER, S-9, AROCLOR 1254, Method: STANDARD PLATE). Moreover, the mutagenic call runs as follows: (Test System: AMES SALMONELLA TYPHIMURIUM, Strain/Indicator: TA1538, Metabolic Activation: HAMSTER, LIVER, S-9, AROCLOR 1254, Method: STANDARD PLATE) “inactive; negative”; (Test System: AMES SALMONELLA TYPHIMURIUM, Strain/Indicator: TA1538, Metabolic Activation: NONE, Method: STANDARD PLATE) “inactive; negative”; (Test System: AMES SALMONELLA TYPHIMURIUM, Strain/Indicator: TA1538, Metabolic Activation: RAT, LIVER, S-9, AROCLOR 1254, Method: STANDARD PLATE) “inactive; negative”; (Test System: MOUSE LYMPHOMA, Strain/Indicator: L5178Y (TK+/TK-), Metabolic Activation: NONE, Method: SUSPENSION/PLATE) “active; positive. reevaluation of results: positive”; (Test System: MOUSE LYMPHOMA, Strain/Indicator: L5178Y (TK+/TK-), Metabolic Activation: RAT, LIVER, S-9, AROCLOR 1254, Method: SUSPENSION/PLATE) “active; positive. reevaluation of results: positive”.
In the case of `O=[N+]([O-])c1c(Cl)c(Cl)c2c(c1Cl)Oc1cc(Cl)c(Cl)cc1O2`, the mutagenic call was “active; positive” under setting [1]; “active; positive” (Test System: AMES SALMONELLA TYPHIMURIUM, Strain/Indicator: TA98, Metabolic Activation: RAT, LIVER, S-9, AROCLOR, Method: STANDARD PLATE); “inactive; negative” under setting [2]; “active; positive” (Test System: AMES SALMONELLA TYPHIMURIUM, Strain/Indicator: TA100, Metabolic Activation: RAT, LIVER, S-9, AROCLOR, Method: STANDARD PLATE).
Turning to `CCC(=O)CN(C)N=O`, the mutagenic call (Test System: CHINESE HAMSTER V-79, Strain/Indicator: V-79/OUABAIN, Metabolic Activation: HAMSTER, HEPATOCYTES, Method: CELL-MEDIATED) is “active; positive”.
As to `ClC[C@@H]1CO1`, the mutagenic call under setting [4] was “active; positive”, the mutagenic call under setting [2] was “active; positive” and the mutagenic call under setting [5] is “active; positive”.
`NCCCNCCCN`: the mutagenic call by setting is: (Test System: AMES SALMONELLA TYPHIMURIUM, Strain/Indicator: TA98, Metabolic Activation: HAMSTER, LIVER, S-9, AROCLOR 1254 (10%), Method: PREINCUBATION) “inactive; negative”; under setting [6], “inactive; negative”; (Test System: AMES SALMONELLA TYPHIMURIUM, Strain/Indicator: TA98, Metabolic Activation: RAT, LIVER, S-9, AROCLOR 1254 (10%), Method: PREINCUBATION) “inactive; negative”; (Test System: AMES SALMONELLA TYPHIMURIUM, Strain/Indicator: TA98, Metabolic Activation: RAT, LIVER, S-9, PCB, Method: PREINCUBATION) “inactive; negative”; (Test System: AMES SALMONELLA TYPHIMURIUM, Strain/Indicator: TA100, Metabolic Activation: HAMSTER, LIVER, S-9, AROCLOR 1254 (10%), Method: PREINCUBATION) “inactive; negative”; under setting [4], “inactive; negative”. The mutagenic call reads like this: (Test System: AMES SALMONELLA TYPHIMURIUM, Strain/Indicator: TA100, Metabolic Activation: RAT, LIVER, S-9, AROCLOR 1254 (10%), Method: PREINCUBATION) “inactive; negative”; under setting [5], “inactive; negative”; (Test System: AMES SALMONELLA TYPHIMURIUM, Strain/Indicator: TA1535, Metabolic Activation: HAMSTER, LIVER, S-9, AROCLOR 1254 (10%), Method: PREINCUBATION) “inactive; negative”; (Test System: AMES SALMONELLA TYPHIMURIUM, Strain/Indicator: TA1535, Metabolic Activation: NONE, Method: PREINCUBATION) “inactive; negative”; (Test System: AMES SALMONELLA TYPHIMURIUM, Strain/Indicator: TA1535, Metabolic Activation: RAT, LIVER, S-9, AROCLOR 1254 (10%), Method: PREINCUBATION) “inactive; negative”; (Test System: AMES SALMONELLA TYPHIMURIUM, Strain/Indicator: TA1537, Metabolic Activation: HAMSTER, LIVER, S-9, AROCLOR 1254 (10%), Method: PREINCUBATION) “inactive; negative”. For the same compound, the mutagenic call runs as follows: (Test System: AMES SALMONELLA TYPHIMURIUM, Strain/Indicator: TA1537, Metabolic Activation: NONE, Method: PREINCUBATION) “inactive; negative”; (Test System: AMES SALMONELLA TYPHIMURIUM, Strain/Indicator: TA1537, Metabolic Activation: RAT, LIVER, S-9, AROCLOR 1254 (10%), Method: PREINCUBATION) “inactive; negative”.
`O=[N+]([O-])c1ccc(OCC2CO2)cc1` (stereo unspecified): the mutagenic call was “inactive; negative” under setting [6]; “active; positive” under setting [4]; “active; positive” under setting [2]; “active; positive” (Test System: AMES SALMONELLA TYPHIMURIUM, Strain/Indicator: TA104, Metabolic Activation: NONE, Method: STANDARD PLATE); “active; positive” (Test System: AMES SALMONELLA TYPHIMURIUM, Strain/Indicator: TA4001, Metabolic Activation: NONE, Method: STANDARD PLATE); “active; positive” (Test System: AMES SALMONELLA TYPHIMURIUM, Strain/Indicator: TA4006, Metabolic Activation: NONE, Method: STANDARD PLATE).
For the compound `C[C@@H]1CC2c3cc(Br)cc4c3c(cn4CC3CC3)C[C@H]2N(C)C1` (stereo partly specified), the mutagenic call under setting [3] was “inactive; negative”.
